We go through 1 molecule from US20090062295A1, “Pharmaceutical Products” (MITSUBISHI PHARMA CORPORATION, priority 2005, published 2009).

Structures are written as SMILES.

This series is described as follows: Influence of pH on content of the compound in solution after storage (Example 1, HPLC). In kind it is physicochemical. Particulars: 1 mg/mL in Britton-Robinson buffer at pH 2, 3, 4, 5 and 6, 1 month storage at 25 or 40° C. The protocol:
A solution was prepared so as to contain the compound at 1 mg/mL of a solvent, and divided as aliquots in clear test tubes and the tubes were tightly sealed. The Britton-Robinson buffer was used as the solvent to prepare sample solutions at pH 2, 3, 4, 5 and 6.
After 1 month storage of these sample solutions under each temperature condition of 25 or 40° C., the contents of the compound were determined by HPLC under the following measurement conditions.
Sample solution: 1 mL of specimen/25 mL of mobile phase
Temperature: Room temperature Mobile phase: 1 M Et3N (adjusted at pH 8 with AcOH):CH3CN:H2O=50:250:700 Flow rate: […]
Loaded volume: 20 μL Quantification method: Corrected area percentage

As for `Cl.O.O.O.O=C1CCC(c2ccc(Nc3ccncc3)cc2)=NN1` [the compound, 6-[4-(4-pyridylamino)phenyl]-4,5-dihydro-3(2H)-pyridazinone hydrochloride trihydrate], the “remaining ratio of the compound” value is listed as “highest at pH 5 to 6”.
